Test: mean ionic activity coefficient (dimensionless); mn = molality of the nth substance listed, in mol/kg
Conditions: 101 kPa, Liquid, galvanic cell

[Br-].[Na+] [sodium bromide] + O
mean ionic activity coefficient
Conditions	298.2 K	310.2 K
m1 = 0.01	0.875	–
m1 = 0.0508	0.835	0.714
m1 = 0.1	–	0.631
m1 = 0.1009	0.777	–
m1 = 0.25	–	0.669
m1 = 0.2509	0.799	–
m1 = 0.5004	0.699	–
m1 = 0.5731	–	0.579
m1 = 0.75	0.637	–
m1 = 0.7503	–	0.559
m1 = 1	0.612	0.547
m1 = 1.25	0.587	0.553
m1 = 1.5	0.57	0.576
m1 = 1.75	0.575	0.61
m1 = 2	0.642	0.635
m1 = 2.25	0.633	0.643
m1 = 2.5	0.644	0.646
m1 = 2.75	0.584	0.711
m1 = 3	0.616	0.846

Reference: the NIST ThermoML archive (doi:10.1016/j.fluid.2017.04.016)
